Laboratory results published in US4602109A, “Novel pesticidal phenoxyphenyl and phenoxypyridyl benzoyl ureas and process for preparation” (Union Carbide Corporation, priority 1984, dated 1986).
Values after ≈ are worked out from the molar mass of the structure shown. Read-outs that look alike come from different tables or passages of the source.

Columns and labels:
Type in all cases: in vivo
[1] = test system: southern armyworm (Spodoptera eridania); experiment: Southern Armyworm Leaf Spray Bait Test; details: 120 h, read-out: Percent Control after 5 days
Description: Suspensions of the test compounds were prepared by dissolving one gram of compound in 50 milliliters of acetone in which had been dissolved 0.1 gram (10 percent of the weight of compound) of an alkylphenoxy polyethoxyethanol surfactant, as an emulsifying or dispersing agent. The resulting solution was mixed into 150 milliliters of water to give roughly 200 milliliters of a suspension containing the compound in finely divided form. The thus-prepared stock suspension contained 0.5 percent by weight of compound.
Certain of the test compounds were also prepared by dissolving 375 mg of compound in 7.5 ml of dimethylformamide. Fifteen ml of acetone containing 37.5 mg (10 percent of the weight of test compound) of an alkylphenoxy polyethoxyethanol surfactant, as a wetting/emulsifying/dispersing agent was added to the dimethylformamide solution. Fifty-two and a half ml of water was mixed into the dimethylformamide-acetone mixture to give roughly 75 ml of a suspension containing the compound in solution or in finely divided form. The thus prepared stock suspension contained 0.5 percent by weight of compound. The test concentrations in parts per million by weight employed in the tests described hereinbelow were obtained by appropriate dilutions of the stock suspension with water. The test procedures were as follows:
Larvae of the southern armyworm (Spodoptera eridania, (Cram.), reared on Tendergreen bean plants at a temperature of 80°±5° F. and a relative humidity of 50±5 percent, constituted the test insects.
The test compounds were formulated by diluting the stock suspension with water to give a suspension containing 500 parts of test compound per million parts of final formulation. Potted Tendergreen bean plants of standard height and age were placed on a revolving turntable and sprayed with 100-110 milliliters of test compound formulation by use of a DeVilbiss spray gun set at 40 psig air pressure. This application, which lasted 25 seconds, was sufficient to wet plants to run-off. As a control, 100-110 milliliters of a water-acetone-emulsifier solution containing no test compound were also sprayed on infested plants. When dry, the paired leaves were separated and each one was placed in a 9 centimeter Petri dish lined with moistened filter paper. Five randomly selected larvae were introduced into each dish and the dishes were closed. The closed dishes were labeled and held at 80°-85° F. for five days. Although the larvae could easily consume the whole leaf within twenty-four hours, no more food was added. Larvae which were unable to move the length of the body, even upon stimulation by prodding, were considered dead. Percent mortality was recorded for various concentration levels.

[2] = test system: H. Virecens; experiment: Comparison against Heliothis spp: H. Virecens; details: read-out: LD50, H. Virecens
[3] = test system: H. Zea; experiment: Comparison against Heliothis spp: H. Zea
[4] = Helicoverpa zea; read-out: LD50, H. Zea

| Compound | mortality at 5 ppm [1] [%] | mortality at 10 ppm [1] [%] | LC50 [2] [µg/mL] | LC50 ([3]; Helicoverpa zea, read-out: LD50, H. Zea) [µg/mL] | mortality at 3 ppm [1] [%] | mortality at 6 ppm [1] [%] | mortality at 12 ppm [1] [%] | LC50 [3, 4] [µg/mL] | mortality at 1.5 ppm [1] [%] | mortality at 20 ppm [1] [%] |
| --- | --- | --- | --- | --- | --- | --- | --- | --- | --- | --- |
| O=C(NC(=O)c1c(F)cccc1F)Nc1ccc(Cl)cc1 [1-(4-chlorophenyl)-3-(2,6-difluorobenzoyl)urea, reference compound] | 40 | 100 | 31 (≈ 99.8 µM) | 500 (≈ 1610 µM) | – | – | – | – | – | – |
| O=C(NC(=O)c1c(F)cccc1F)Nc1cc(Cl)c(Oc2ccc(S(=O)(=O)c3ccc(Cl)cc3)cc2)c(Cl)c1 [Example 2, 1-(2,6-Difluorobenzoyl)-3-(3,5-dichloro-4-[4-(4-chlorophenylsulfonyl)phenoxy]phenyl)urea] | – | – | 8.5 (≈ 13.9 µM) | – | 100 | 90 | 100 | 12.5 (≈ 20.4 µM) | – | – |
| O=C(NC(=O)c1c(F)cccc1F)Nc1ccc(Oc2ccc(S(=O)(=O)c3ccc(Cl)cc3)cc2)c(Cl)c1 [Example 3, 1-(2,6-difluorobenzoyl)-3-(3-chloro-4-[4-((4-chloro-phenylsulfonyl))-phenoxy]phenyl)urea] | – | – | 31 (≈ 53.7 µM) | – | 56 | 75 | 100 | 31 (≈ 53.7 µM) | – | – |
| O=C(NC(=O)c1c(F)cccc1Cl)Nc1ccc(Oc2ccc(S(=O)(=O)c3ccc(Cl)cc3)cc2)cc1 [Example 9, 1-(2-chloro-6-fluorobenzoyl)-3-(4-[4-(4-chloro-phenylsulfonyl)phenoxy]-phenyl)urea] | – | – | – | – | – | 100 | – | – | 60 | 100 |
